Measured values reported in patent publication US5300298A, “Methods of treating obesity with purine related compounds” (The Pennsylvania Research Corporation, priority 1992, dated 1994).

How the values were obtained:
[1] = Serum BW1433 level after chronic administration (fluorometric after HPLC separation); assay type: in vivo, Zucker rats; settings: for concentration at 168 h: rat, serum, day 7
Method: Next, I studied the effect of chronic treatment with BW1433. For this purpose I employed 2 ml Alzet mini osmotic pumps. Each pump was loaded with 2 ml of a solution containing BW1433 or with vehicle (aqueous solution adjusted to pH II). The amount of BW1433 was adjusted so that the pump delivered either zero, 0.2 mg or 0.4 mg/Kg/hour to each animal. On the first day the animals had the pumps implanted and were given a priming (2 mg/Kg or 4 mg/Kg) dose of the antagonist. Blood was taken prior to surgery and six hours after the animals were removed from their food supply. On each subsequent day animals had free access to food and water overnight, then their food removed for six hours, and a blood sample taken. In addition to taking blood samples for glycerol analysis, each animal was weighed every day for seven days. After seven days the animals were fasted overnight and a glucose tolerance test given The animals were then sacrificed and 1 ml blood sample taken for serum insulin and serum BW1433 determination drug levels. Insulin levels were measured with RIA kit (Diagnostic Products) and BW1433 levels were measured fluorometrically after HPLC separation at Burroughs Wellcome, Research Triangle Park, North Carolina. […] Nonetheless, when glucose tolerance curves were administered on day 7, drug-related differences could still be seen in all animals studied. […] This is illustrated more clearly in FIG. 4 where the area under the glucose tolerance curve is shown as a bar for each of the 6 groups of animals. […] FIG. 5 is a chart of the change in weight of treated and untreated lean and obese animals. […] The effect on weight change in each case was maximal at day 3, the day when the glycerol values peaked. Based on these remarkable results, the compounds of Formula I can be administered to obese warm-blooded animals as anti-obesity agents, or administered to farm animals to advantageously increase the ratio of muscle mass to fat therein. […] The obese animals apparently have lower extracellular fluid volume per Kg body weight.

[2] = system: lean and obese Zucker rats; test: Daily serum glycerol during chronic administration of BW1433 (Alzet mini osmotic pumps); assay type: in vivo
Method: FIG. 2: Daily serum glycerol levels during chronic administration of BW1433 in lean (L) and obese (F) Zucker rats. In the no drug group (V) n=5, in the D1 group (0.2 mg/Kg/hr) n=5, and in the D2 group (0.4 mg/Kg/hr) n=4.
(§1) Next, I studied the effect of chronic treatment with BW1433. For this purpose I employed 2 ml Alzet mini osmotic pumps. Each pump was loaded with 2 ml of a solution containing BW1433 or with vehicle (aqueous solution adjusted to pH II). The amount of BW1433 was adjusted so that the pump delivered either zero, 0.2 mg or 0.4 mg/Kg/hour to each animal. On the first day the animals had the pumps implanted and were given a priming (2 mg/Kg or 4 mg/Kg) dose of the antagonist. Blood was taken prior to surgery and six hours after the animals were removed from their food supply. On each subsequent day animals had free access to food and water overnight, then their food removed for six hours, and a blood sample taken.
(§2) In addition to taking blood samples for glycerol analysis, each animal was weighed every day for seven days. After seven days the animals were fasted overnight and a glucose tolerance test given The animals were then sacrificed and 1 ml blood sample taken for serum insulin and serum BW1433 determination drug levels. Insulin levels were measured with RIA kit (Diagnostic Products) and BW1433 levels were measured fluorometrically after HPLC separation at Burroughs Wellcome, Research Triangle Park, North Carolina. […] Nonetheless, when glucose tolerance curves were administered on day 7, drug-related differences could still be seen in all animals studied. […] This is illustrated more clearly in FIG. 4 where the area under the glucose tolerance curve is shown as a bar for each of the 6 groups of animals. […] FIG. 5 is a chart of the change in weight of treated and untreated lean and obese animals. […] The effect on weight change in each case was maximal at day 3, the day when the glycerol values peaked. Based on these remarkable results, the compounds of Formula I can be administered to obese warm-blooded animals as anti-obesity agents, or administered to farm animals to advantageously increase the ratio of muscle mass to fat therein.

[3] = Body weights during chronic administration of BW1433; assay type: in vivo, Zucker rats
Method: FIG. 5: Body weights of lean and obese Zucker rats during chronic administration of BW1433. The data are presented as a % of day 0 weight. Day 0 represents when the Alzet mini-pumps were implanted. The conditions are the same as those described in the legend to FIG. 2.
as §1
as §2, with “Based on these remarkable results, the compounds of Formula I can be administered to obese warm-blooded animals as anti-obesity agents, or administered to farm animals to advantageously increase the ratio of muscle mass to fat therein.” left out

[4] = system: lean and obese Zucker rats; test: Glucose tolerance test after seven days of BW1433 administration; assay type: in vivo
Method: FIG. 3: Glucose tolerance test after seven days of BW1433 administration. Animals were fasted overnight before injection of 1.25 g/Kg glucose and samples taken 15, 30, 60 and 120 min for glucose determinations. The conditions are the same as those described in legend to FIG. 2 (Cont=V).
FIG. 4: A bar graph representing the area under the glucose tolerance curves of FIG. 3.
as §1
as §2, with “Based on these remarkable results, the compounds of Formula I can be administered to obese warm-blooded animals as anti-obesity agents, or administered to farm animals to advantageously increase the ratio of muscle mass to fat therein.” left out

Al adenosine receptor [5] = test: Acute subcutaneous injection of BW1433, serum glycerol (whole body lipolysis); assay type: in vivo, Sprague Dawley rats; lean and obese Zucker rats; settings: Sprague Dawley rats, 18 hour fasted, 60 min after subcutaneous injection, 0-10 mg/Kg
Method: FIG. 1: Serum glycerol levels 60 min after a subcutaneous injection of BW1433 (0-10 mg/Kg) in Sprague Dawley rats (SD) and lean and obese Zucker rats. Each point represents 3-4 animals in the case of SD rats and 3-10 or 4-10 in the case of lean and obese Zuckers, respectively.
My initial studies were carried out following acute subcutaneous injections of the drug into male Sprague Dawley rats and into lean and into obese Zucker rats. Blood samples (100 microliter) were taken from the tail of the rats and measurements made of serum glycerol^6. Glycerol is an end product of lipolysis and thus an excellent indicator of the rate of whole body lipolysis. […] I discovered that in the absence of the Formula I compound tested, serum glycerol levels only differ slightly when comparing lean and obese animals. Since there is 3-4 times more fat in the obese animal this is good evidence for sluggish lipolysis per g of fat in the obese. The obese animals however seem to mobilize the fat at an earlier time after removal of their food supply (Table 1), since after 6 hours of fasting the obese serum glycerol levels are much higher than the lean.
Next, I studied the effect of subcutaneous injections of BW1433 in 18 hour fasted animals. The results, shown in FIG. 1, support my initial postulation, that the Al adenosine receptor may be particularly active in obese animals. […]

[6] = system: lean and obese (fatty) Zucker rats; test: Serum insulin after chronic administration of BW1433 (RIA kit); assay type: in vivo
Method: as §1, §2
The obese animals apparently have lower extracellular fluid volume per Kg body weight.

Al adenosine receptor [7] = test: Blockade by BW1433 of receptors activated with the agonist N-6 phenylisopropyladenosine (PIA), subcutaneous; assay type: in vivo, rat (Sprague Dawley, lean Zucker, obese Zucker); settings: all three strains of rat
Method: Next, I studied the effect of subcutaneous injections of BW1433 in 18 hour fasted animals. The results, shown in FIG. 1, support my initial postulation, that the Al adenosine receptor may be particularly active in obese animals. […] To distinguish between these possibilities, the agonist N-6 phenylisopropyladenosine (PIA) was injected subcutaneously either alone or in combination with BW1433.

[8] = cited from earlier work

CCCn1c(=O)c2nc(-c3ccc(/C=C/C(=O)O)cc3)[nH]c2n(CCC)c1=O [BW1433, (E)-4-(1,2,3,6-tetrahydro-2,6-dioxo-1,3-dipropyl-9H-purin-8-yl)cinnamic acid]
serum drug level, obese versus lean ([1]; obese compared with lean Zucker rats): somewhat higher levels of drug than the lean | concentration at 168 h ([1]; 0.2 mg/kg/h, Fatty, +BW1433, 0.2 mg/kg (pump, per hour)): 0.205 ± 0.022 µg/mL | concentration at 168 h ([1]; 0.2 mg/kg/h, Lean, +BW1433, 0.2 mg/kg (pump, per hour)): 0.102 ± 0.02 µg/mL | concentration at 168 h ([1]; 0.4 mg/kg/h, Fatty, +BW1433, 0.4 mg/kg (pump, per hour)): 0.624 ± 0.08 µg/mL | concentration at 168 h ([1]; 0.4 mg/kg/h, Lean, +BW1433, 0.4 mg/kg (pump, per hour)): 0.366 ± 0.098 µg/mL | day when the glycerol values peaked ([2]; chronic): 3 days | serum levels on day 7 (adaptation to the drug) ([2]; day 7, chronic): all serum levels were similar on day 7 | effect on serum glycerol level ([2]; lean Zucker rats, chronic 0.2 or 0.4 mg/Kg/hour): did not effect the glycerol level | serum glycerol level, higher dose (0.4 mg/Kg) versus lower dose (0.2 mg/Kg) ([2]; obese Zucker rats, chronic): higher in the group with the higher dose of drug | serum glycerol level versus controls ([2]; obese Zucker rats, chronic 0.2 or 0.4 mg/Kg/hour): much higher levels of glycerol than the controls | growth or weight gain ([3]; lean Zucker rats): increased growth or weight gain | day of maximal effect on weight change ([3]; lean and obese): 3 days | growth or weight gain ([3]; obese Zucker rats): decreased growth or weight gain | glucose tolerance ([4]; day 7, 1.25 g/Kg glucose): improved glucose tolerance | area under the glucose tolerance curves ([4]; lean and obese (fatty) animals, FIG. 4): does reduce the area under these curves | area under the glucose tolerance curve ([4]; lean and obese Zucker rats, 1.25 g/Kg glucose intraperitoneal, day 7, dose dependence): smaller, the larger the dose | effect on serum glycerol (Al adenosine receptor [5]): little or no effect | serum insulin ([6]; Fatty, +BW1433, 0.2 mg/kg (vehicle 54.06 ± 9.49)): 52.81 ± 4.82 micro lu/ml | serum insulin ([6]; Fatty, +BW1433, 0.4 mg/kg (vehicle 54.06 ± 9.49)): 58.06 ± 6.52 micro lu/ml | serum insulin ([6]; Lean, +BW1433, 0.2 mg/kg (vehicle 7.92 ± 0.92)): 11.63 ± 1.62 micro lu/ml | serum insulin ([6]; Lean, +BW1433, 0.4 mg/kg (vehicle 7.92 ± 0.92)): 10.67 ± 1.50 micro lu/ml | dose at which receptors could be effectively blocked (Al adenosine receptor [7]): 1 to 2 mg/kg | oral administration and absorption [8]: can be administered and absorbed orally
